Experimental data reported in BindingDB's records for doi:10.1016/j.ejmech.2018.12.019 (Rheinische Friedrich-Wilhelms-University of Bonn, 2019).

How the values were obtained:
[1] = biological target: ATP-dependent translocase ABCB1 (Homo sapiens, UniProt P08183); assay: Inhibition of ABCB1 in human A2780/ADR cells assessed as potentiation of daunorubicin-induced cytotoxicity measured after 72 hrs by MTT assay
[2] = Inhibition of ABCG2 (unknown origin) expressed in MDCK2 cells co-expressing BCRP (unknown origin) assessed as potentiation of SN-38-induced cytotoxicity measured after 72 hrs by MTT assay
[3] = Inhibition of ABCB1 in human A2780/ADR cells assessed as potentiation of daunorubicin-induced cytotoxicity measured after 72 hrs by MTT assay
[4] = biological target: T1, Broad substrate specificity ATP-binding cassette transporter ABCG2 (Homo sapiens, UniProt Q9UNQ0); assay: Inhibition of ABCG2 (unknown origin) expressed in MDCK2 cells co-expressing BCRP (unknown origin) assessed as potentiation of SN-38-induced cytotoxicity measured after 72 hrs by MTT assay
T1 sequence (Q9UNQ0 whole entry): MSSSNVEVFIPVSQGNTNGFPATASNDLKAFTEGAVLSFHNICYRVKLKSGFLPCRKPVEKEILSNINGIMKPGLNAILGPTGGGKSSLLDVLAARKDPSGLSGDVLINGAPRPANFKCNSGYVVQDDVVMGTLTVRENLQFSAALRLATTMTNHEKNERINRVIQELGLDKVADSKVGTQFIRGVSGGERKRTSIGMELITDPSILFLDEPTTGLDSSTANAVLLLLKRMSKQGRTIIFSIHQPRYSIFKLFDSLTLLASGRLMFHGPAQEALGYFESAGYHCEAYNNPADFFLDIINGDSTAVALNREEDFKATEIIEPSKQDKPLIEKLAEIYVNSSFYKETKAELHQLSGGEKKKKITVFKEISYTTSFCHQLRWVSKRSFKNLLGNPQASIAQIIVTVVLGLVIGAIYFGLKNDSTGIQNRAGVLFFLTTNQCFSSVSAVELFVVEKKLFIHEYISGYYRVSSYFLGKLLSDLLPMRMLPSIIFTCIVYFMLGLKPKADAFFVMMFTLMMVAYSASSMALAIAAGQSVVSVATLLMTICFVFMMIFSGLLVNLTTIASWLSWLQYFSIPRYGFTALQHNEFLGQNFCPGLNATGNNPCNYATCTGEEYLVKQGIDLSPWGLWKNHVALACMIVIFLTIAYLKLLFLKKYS

ATP-dependent translocase ABCB1, sequence (P08183 whole entry): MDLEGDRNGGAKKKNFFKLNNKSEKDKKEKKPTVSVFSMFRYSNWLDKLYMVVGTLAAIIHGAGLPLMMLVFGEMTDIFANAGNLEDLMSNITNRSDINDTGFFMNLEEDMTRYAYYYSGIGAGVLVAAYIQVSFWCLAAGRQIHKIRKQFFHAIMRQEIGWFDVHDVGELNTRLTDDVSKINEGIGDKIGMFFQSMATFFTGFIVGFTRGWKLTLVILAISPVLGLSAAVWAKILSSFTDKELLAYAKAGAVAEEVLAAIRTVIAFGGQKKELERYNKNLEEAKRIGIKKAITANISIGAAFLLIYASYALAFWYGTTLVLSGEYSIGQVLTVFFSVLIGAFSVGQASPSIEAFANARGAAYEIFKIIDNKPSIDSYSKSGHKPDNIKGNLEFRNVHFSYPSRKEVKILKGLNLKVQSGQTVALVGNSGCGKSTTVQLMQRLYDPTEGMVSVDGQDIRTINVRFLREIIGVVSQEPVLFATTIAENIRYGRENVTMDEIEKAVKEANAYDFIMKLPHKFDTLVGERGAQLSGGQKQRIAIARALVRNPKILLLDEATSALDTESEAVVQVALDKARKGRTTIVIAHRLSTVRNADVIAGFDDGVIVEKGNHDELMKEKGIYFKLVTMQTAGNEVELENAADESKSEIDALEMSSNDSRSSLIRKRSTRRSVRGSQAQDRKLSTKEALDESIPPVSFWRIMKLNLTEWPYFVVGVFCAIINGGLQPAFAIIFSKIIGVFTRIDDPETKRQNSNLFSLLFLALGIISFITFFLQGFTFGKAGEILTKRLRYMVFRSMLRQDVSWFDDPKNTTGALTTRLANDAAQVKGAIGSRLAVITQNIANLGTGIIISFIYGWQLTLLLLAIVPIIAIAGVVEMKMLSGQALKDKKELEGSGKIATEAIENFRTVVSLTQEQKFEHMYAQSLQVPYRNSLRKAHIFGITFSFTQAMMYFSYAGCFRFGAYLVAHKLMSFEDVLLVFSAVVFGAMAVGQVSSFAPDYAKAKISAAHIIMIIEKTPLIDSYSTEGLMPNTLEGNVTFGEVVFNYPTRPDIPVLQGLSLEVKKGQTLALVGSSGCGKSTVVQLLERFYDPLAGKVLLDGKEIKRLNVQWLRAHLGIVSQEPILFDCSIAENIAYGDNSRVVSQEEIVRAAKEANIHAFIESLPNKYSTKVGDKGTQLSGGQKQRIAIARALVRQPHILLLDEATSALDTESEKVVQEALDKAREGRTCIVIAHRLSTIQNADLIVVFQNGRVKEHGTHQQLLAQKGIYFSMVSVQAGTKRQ

Cc1cc(Nc2ncc(Cl)c(Nc3ccccc3S(=O)(=O)C(C)C)n2)c(OC(C)C)cc1C1CCNCC1
EC50 [1]: 89 nM

O=C(COc1cccc(C(=O)/C=C/c2ccccc2)c1)Nc1ccc2c(c1)COC2=O
EC50 [2]: 1170 nM

COc1ccc(-c2c(OCC(=O)Nc3cccc4ccccc34)oc3ccccc3c2=O)cc1OC
EC50 [3]: 3120 nM | EC50 [2]: 446 nM

Cc1ccc(-c2c(OCC(=O)Nc3cccc4ccccc34)oc3ccccc3c2=O)cc1
EC50 [3]: 5010 nM

CCCOc1ccc(/C=C/C(=O)c2ccc(O)cc2)cc1
EC50 [2]: 1250 nM

COc1cccc(/C=C/C(=O)c2ccc(OCC(=O)Nc3ccc(OC)c(OC)c3)cc2)c1
EC50 [2]: 1390 nM

O=C(COc1c(-c2ccccc2Cl)oc2ccccc2c1=O)Nc1ccc2c(c1)COC2=O
EC50 [3]: 9900 nM | EC50 [2]: 1220 nM

COc1cc(C(=O)/C=C/c2cc(OC)c(OC)c(OC)c2)ccc1O
EC50 [2]: 512 nM

COc1ccc(-c2c(OCC(=O)Nc3cccc4ccccc34)oc3ccccc3c2=O)cc1
EC50 [2]: 793 nM

COc1ccc(NC(=O)COc2ccc(C(=O)/C=C/c3cc(OC)c(OC)c(OC)c3)cc2)cc1OC
EC50 [2]: 107 nM

COc1cc(/C=C/C(=O)c2ccc(OCC(=O)NCc3ccc4c(c3)OCO4)cc2)cc(OC)c1OC
EC50 [2]: 989 nM

COc1ccc(NC(=O)COc2ccc(C(=O)/C=C/c3c(F)cccc3F)cc2)cc1OC
EC50 [2]: 448 nM

CN1CCN(c2cccc(Nc3nc4c(-c5ccc(S(C)(=O)=O)cc5)cccn4n3)c2)CC1
EC50 [1]: 202 nM

Cc1ccc(-n2nc(C(C)(C)C)cc2NC(=O)Nc2ccc(OCCN3CCOCC3)c3ccccc23)cc1 [1-[5-tert-butyl-2-(p-tolyl)pyrazol-3-yl]-3-[4-(2-morpholinoethoxy)-1-naphthyl]urea]
EC50 [1]: 524 nM

C[C@]1(O)C[C@@H](c2nc(-c3ccc4ccc(-c5ccccc5)nc4c3)c3c(N)nccn32)C1 [(1s,3s)-3-(8-amino-1-(2-phenylquinolin-7-yl)imidazo[1,5-a]pyrazin-3-yl)-1-methylcyclobutanol]
EC50 [3]: 2090 nM | EC50 [4]: 104 nM

COC(=O)c1ccc2c(c1)NC(=O)/C2=C(\Nc1ccc(N(C)C(=O)CN2CCN(C)CC2)cc1)c1ccccc1 [BIBF-1120]
EC50 [1]: 276 nM

CC(=O)Nc1cccc(-n2c(=O)n(C3CC3)c(=O)c3c(Nc4ccc(I)cc4F)n(C)c(=O)c(C)c32)c1 [CHEBI:75998]
EC50 [1]: 247 nM

COc1cc2ncnc(Nc3ccc(O)c(Br)c3)c2cc1OC [WHI-P154]
EC50 [3]: 3080 nM | EC50 [4]: 189 nM
